Results as given in paper PMC12702354, “Engineered an ultrasmall curcumin oral nanoformulation restores intestinal integrity and gut microbiota dysbiosis” (Materials Today Bio, 2025).
Where two headings read alike, the source gives them in different places.

What was measured:
[1] = PK study after oral gavage; assay type: in vivo, C57BL/6J mice; details: 50 mg/kg
[2] = test system: faecal metabolites of gut bacteria; assay: Faecal metabolome analysis (GC-MS) in VAN-induced mice; assay type: in vivo, C57BL/6 mice; details: faeces, VAN vs treated group, n = 5
Experimental: The extract of faecal samples (40 mg/ml methanol) was prepared as described in the previous method. The obtained dry extract was derivatized with methoxyamine-HCl and BSTFA (Sigma-Aldrich, USA), followed by incubation for 1 h at 37 °C. Subsequently, the supernatant (10 μl) obtained after centrifugation at 10,000×g for 12 min was injected into an Agilent GC-MS. The injector, transfer line, and ion source were set at 280 °C, 150 °C and 230 °C, respectively. At the beginning, we set the oven temperature to 60 °C, and then increased at 60 °C/min for 2 min, followed by an increase at the rate of 10 °C/min until reaching 300 °C.

[3] = Dose determination: body weight and liver weight; assay type: in vivo, C57BL/6 mice; details: for Final body weight / Liver weight / Rel. liver weight: n = 12
Experimental: We first determined the doses of UsNFs and free-CUR in eight-week-old female C57BL/6 mice before systematically evaluating the retention of UsNFs in the GIT and PK of CUR. […] Consequently, 50 mg/kg was identified as the optimal dosage for subsequent in vivo therapeutic assessment of both UsNFs and free-CUR, achieving a balance between efficacy potential, safety, and physiological tolerance.

[4] = test system: VAN-induced C57BL/6J mouse model; assay: VAN-induced intestinal epithelial barrier dysfunction and gut inflammation model; details: 50 mg/kg oral daily, 10 days after VAN
Experimental: This was succeeded by a daily oral administration of 50 mg/kg UsNFs of CUR for another 10 days, whereas the control group (CON) received standard rodent feed and water (Fig. 5A).

[5] = male, C57BL/6J, mouse, CUR in plasma, n = 6
[6] = male, C57BL/6J, mouse, plasma, n = 6

Compound: COc1cc(/C=C/C(=O)CC(=O)/C=C/c2ccc(O)c(OC)c2)ccc1O [free-CUR, curcumin]
- Cmax ([1]; CUR in plasma, n = 6): 7.126 ± 0.317 ng/mL
- AUC(0-inf) [1, 5]: 10.4 ± 0.683 ng·h/mL
- AUC(0-t) [1, 5]: 7.68 ± 0.218 ng·h/mL
- Tmax [1, 6]: 30 min
- half-life [1, 6]: 64.6 ± 8.22 min
- k el ([1]; male, C57BL/6J, mouse, plasma, n = 6, read-out: Ke (converted)): 5.25e-05 s⁻¹
- Cmax ([1]; male, C57BL/6J, mouse, plasma, po, CUR in plasma, n = 6, read-out: Cmax): ~7.13 ng/mL
- Bioavailability ([1]; relative to free-CUR, n = 6): 100.00 ± 29.388%
- Fold change, 2,4,5-Trihydroxypentanoic acid [2]: 0.778
- Fold change, 2-Hydroxyglutaric acid [2]: 3.491
- Fold change, 4-Aminobutyric acid [2]: 0.998
- Fold change, 4-Hydroxy-3-methoxybenzoic acid [2]: 0.619
- Fold change, 4-Hydroxyproline [2]: 0.924
- Fold change, 5-Aminovaleric acid [2]: 1.101
- Fold change, 9,12,15-Octadecatrienoic acid [2]: 1.217
- Fold change, 9-(Z)-Hexadecenoic acid [2]: 1.102
- Fold change, Acetate [2]: 0.733
- Fold change, Adenine [2]: 0.325
- Fold change, Alanine [2]: 0.743
- Fold change, Arabitol [2]: 0.432
- Fold change, Aspartic acid [2]: 3.075
- Fold change, Azelaic acid [2]: 0.849
- Fold change, Benzenepropanoic acid [2]: 0.368
- Fold change, Butyrate [2]: 0.168
- Fold change, Cholesta-8,24-dien-3-ol, 4-methyl-, (3β,4α) [2]: 1.313
- Fold change, D-fructose [2]: 1.400
- Fold change, D-glucose [2]: 1.069
- Fold change, Eicosanoic acid [2]: 0.404
- Fold change, Erythronic acid [2]: 1.754
- Fold change, Ethanolamine [2]: 1.266
- Fold change, Fucose [2]: 0.580
- Fold change, Galacturonic acid [2]: 1.024
- Fold change, Gentiobiose [2]: 2.357
- Fold change, Gluconic acid [2]: 1.119
- Fold change, Glutaric acid [2]: 0.708
- Fold change, Glycerol [2]: 0.926
- Fold change, Glycerol-3-phosphate [2]: 2.032
- Fold change, Glycolic acid [2]: 2.144
- Fold change, Hexadecanoic acid [2]: 1.155
- Fold change, Hexanoic acid [2]: 1.359
- Fold change, Homoserine [2]: 2.352
- Fold change, Hypoxanthine [2]: 0.916
- Fold change, Isoleucine [2]: 1.058
- Fold change, L-rhamnose [2]: 0.191
- Fold change, Lactic acid [2]: 0.573
- Fold change, Leucine [2]: 0.704
- Fold change, Lysine [2]: 0.526
- Fold change, Methionine [2]: 1.121
- Fold change, Nicotinic acid [2]: 0.616
- Fold change, Octadecadienoic acid [2]: 1.285
- Fold change, Ornithine [2]: 0.453
- Fold change, Orotic acid [2]: 1.443
- Fold change, Pantothenic acid [2]: 0.519
- Fold change, Pentadecanoic acid [2]: 0.271
- Fold change, Phenylalanine [2]: 0.989
- Fold change, Phosphoric acid [2]: 1.212
- Fold change, Propionate [2]: 1.530
- Fold change, Ribitol [2]: 1.340
- Fold change, Serine [2]: 0.538
- Fold change, Sorbitol [2]: 1.816
- Fold change, Tetradecanoic acid [2]: 0.349
- Fold change, Threitol [2]: 2.116
- Fold change, Threonic acid [2]: 1.362
- Fold change, Threonine [2]: 1.275
- Fold change, Thymine [2]: 1.214
- Fold change, Tricosadiynoic acid [2]: 0.767
- Fold change, Tryptophan [2]: 1.117
- Fold change, Uracil [2]: 0.561
- Fold change, Uric acid [2]: 0.772
- Fold change, beta-Alanine [2]: 1.217
- Fold change, myo-Inositol [2]: 2.179
- Fold change, myo-Inositol-1-phosphate [2]: 0.584
- Final body weight or relative liver weight compared to normal control ([3]; 25 mg/kg and 50 mg/kg): no significant differences
- Final body weight ([3]; 25 mg/kg): 22.02 ± 0.15 g
- Liver weight ([3]; 25 mg/kg): 1.06 ± 0.036 g
- Rel. liver weight ([3]; 25 mg/kg): 4.81 ± 0.11 Liver wt/100 g b.wt
- Final body weight ([3]; 50 mg/kg): 21.6 ± 0.19 g
- Liver weight ([3]; 50 mg/kg): 1.05 ± 0.022 g
- Rel. liver weight ([3]; 50 mg/kg): 4.86 ± 0.23 Liver wt/100 g b.wt
- Final body weight ([3]; 75 mg/kg): 16.2 ± 0.21 g
- Liver weight ([3]; 75 mg/kg): 1.19 ± 0.038 g
- Rel. liver weight ([3]; 75 mg/kg): 7.34 ± 0.16 Liver wt/100 g b.wt
- Colon length [4]: no significant decrease
- MDA levels [4]: only partially diminished
